These results are taken from patent US4595757A, “N-alkylated benzo- and hetero-fused antisecretory agents” (American Home Products Corporation, priority 1984, dated 1986).

In one experiment the target is T1, H2-receptor (Cavia porcellus, UniProt P47747).
T1 construct: from tissue; host or cells: Guinea pig right atrium, spontaneously beating
Put plainly: Histamine-induced positive chronotropic response in the spontaneously beating right atrium of the guinea pig heart (H2-receptor antagonism). To be noted: at a level of 1×10^-6 M; 30 minutes after addition. As to the method: The tissue is allowed to stabilize over 1 hour. Individual contractions are recorded with a force-displacement transducer through a strain gauge coupler. […] The test compound is added to the tissue bath at the desired final concentration. Thirty minutes after addition of the compound, a fresh histamine dose response curve is again obtained. Then the response to histamine in the presence of antagonist is compared to the histamine control response. This procedure is repeated, using fresh tissues, for each concentration of antagonist tested.

For experiment [1], the target named is T2, (H^+ +K^+)ATPase (Rattus norvegicus, UniProt P09626).
T2 construct: Rat gastric mucosal tissue is collected from 170-220 g male Sprague-Dawley rats; from tissue; host or cells: Dispersed gastric mucosal cells from male Sprague-Dawley rats (Pronase E digestion)
T2 sequence (P09626 whole entry): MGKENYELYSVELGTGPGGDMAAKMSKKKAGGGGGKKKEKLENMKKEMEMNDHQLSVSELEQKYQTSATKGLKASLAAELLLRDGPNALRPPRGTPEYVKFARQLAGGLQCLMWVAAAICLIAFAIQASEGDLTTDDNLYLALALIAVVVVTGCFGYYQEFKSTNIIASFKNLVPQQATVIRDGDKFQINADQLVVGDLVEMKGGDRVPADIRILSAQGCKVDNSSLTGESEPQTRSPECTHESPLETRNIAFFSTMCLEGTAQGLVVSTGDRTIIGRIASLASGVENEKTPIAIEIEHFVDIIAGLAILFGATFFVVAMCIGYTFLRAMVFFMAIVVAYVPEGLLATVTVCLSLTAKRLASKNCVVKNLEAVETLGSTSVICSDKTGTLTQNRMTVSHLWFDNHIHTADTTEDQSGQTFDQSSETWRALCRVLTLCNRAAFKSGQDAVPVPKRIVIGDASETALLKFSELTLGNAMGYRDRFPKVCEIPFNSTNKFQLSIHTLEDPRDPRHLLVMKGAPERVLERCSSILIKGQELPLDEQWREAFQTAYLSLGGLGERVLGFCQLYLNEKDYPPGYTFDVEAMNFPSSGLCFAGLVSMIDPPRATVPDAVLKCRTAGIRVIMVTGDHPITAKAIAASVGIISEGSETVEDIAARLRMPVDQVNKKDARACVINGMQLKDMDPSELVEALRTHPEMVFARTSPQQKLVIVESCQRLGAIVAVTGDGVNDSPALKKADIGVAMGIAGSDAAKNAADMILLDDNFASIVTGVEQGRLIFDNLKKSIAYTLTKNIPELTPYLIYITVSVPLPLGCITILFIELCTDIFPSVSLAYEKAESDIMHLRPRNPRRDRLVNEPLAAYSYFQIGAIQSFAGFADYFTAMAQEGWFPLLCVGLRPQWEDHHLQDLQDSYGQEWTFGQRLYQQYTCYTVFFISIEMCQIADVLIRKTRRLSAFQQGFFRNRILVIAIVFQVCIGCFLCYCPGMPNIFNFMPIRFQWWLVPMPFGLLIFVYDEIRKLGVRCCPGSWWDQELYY
T2 sequence (P18598 whole entry partner): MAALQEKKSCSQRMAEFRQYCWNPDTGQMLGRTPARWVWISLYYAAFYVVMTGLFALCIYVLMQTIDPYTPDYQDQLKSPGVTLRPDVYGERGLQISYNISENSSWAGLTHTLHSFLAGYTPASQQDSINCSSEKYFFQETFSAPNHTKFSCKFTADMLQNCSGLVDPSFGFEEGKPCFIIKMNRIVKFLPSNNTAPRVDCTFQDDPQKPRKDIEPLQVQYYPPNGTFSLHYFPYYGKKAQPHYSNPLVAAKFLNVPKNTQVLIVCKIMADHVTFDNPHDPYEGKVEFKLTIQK
Put plainly: Inhibition of dibutyryl cyclic AMP-stimulated 14C-aminopyrine uptake by rat gastric mucosal cells ((H^+ +K^+)ATPase inhibition). To be noted: 37° C., 2 hours. The format is cell-based. The text has this: The procedures for these tests and the results for some of the compounds of the invention are presented at the end of the following examples, which will serve to illustrate the present invention. The determination of the rate of gastric acid secretion cannot be measured quantitatively with isolated gastric glands or cells. However, the acid secretory response can be monitored semiquantitatively by measuring the uptake of a radiolabelled weak base, ^14 C-aminopyrine (^14 C-AP), which accumulates in the glands in proportion to the pH differences between the intraglandular acid compartments and the surrounding medium. The following assay uses this effect in order to measure the ability of the compounds of the invention to inhibit gastric acid secretion by blocking (H^+ +K^+)ATPase. Rat gastric mucosal tissue is collected from 170-220 g male Sprague-Dawley rats. […] The Pronase E is poured off and the tissues are rinsed in a small amount of DNAse solution (2.5 mg DNAse in 10 ml of Hanks Balanced Salt Solution (HBE) with addition of 1 mg/ml of BSA and 0.76 mg/ml of EGTA). 4 ml of stock DNAse solution is added to 76 ml of HBE and aerated before use. The pH of the solution is adjusted to 7.5 with 2M Tris Buffer. The comminuted tissue is passed through nylon mesh into DNAse solution and incubated at ambient temperature for 20 minutes. The cells obtained thereby are dispersed, filtered through nylon mesh and centrifuged at 1000 RPM's for 7 minutes. […] Immediately before use, 6.1 mg of L-cysteine is dissolved in 5 ml RPMI-BSA. The final incubation medium is (by volume) 80% RPMI-BSA, 10% glucose/PA/IMX solution and 10% L-cysteine solution. For the actual assay procedure, microfuge tubes are prepared as follows: Into each tube are placed (a) 100 μl of the stimulant dibutyryl cyclic AMP made up in H2 O or an equal volume of distilled H2 O; (b) 100 μl of drug made up in RPMSI-BSA or an equal volume of RPMI-BSA; (c) 750 μl of the cell suspension; and (d) 50 μl of ^14 C-aminopyrine solution. The tubes are shaken in a 37° C. water bath in a O2 /CO2 (95/5%) atmosphere at about 110 cycles/minute, and incubated for 2 hours. The tubes are then microfuged for 30 seconds, the pellet surface rinsed with 500 μl RPMI-BSA and the cells dispersed in 500 μl distilled H2 O. The cells are then transferred to mini-scintillation vials with 5.75 ml of Hydrofluor, vortexed and counted in a Packard liquid scintillation counter. The inhibition of ^14 C-AP uptake is quantified from the scintillation count results and the IC50 for test compounds is calculated. The results for some of the compounds of the invention and for the two known (H^+ +K^+)ATPase inhibitors, omeprazole and timoprazole, are given in Table I.

For experiment [2], the system named is cold restraint/stress ulcerogenesis. The experiment in a line: Cold restraint/stress ulcerogenesis assay (cytoprotective effect). The format is in vivo. Particulars: Rattus norvegicus; male rats, oral, cold (4±1° C.) restraint; read-out: Inhibition, ED50 (cold restraint/stress ulcers). As to the method: The procedures for these tests and the results for some of the compounds of the invention are presented at the end of the following examples, which will serve to illustrate the present invention. The ability of the compounds of the invention to exert a cytoprotective effect is examined in the cold restraint/stress ulcerogenesis assay. Male Charles River rats weighing between 120-160 gm are deprived of food for 18 hours with water ad libitum. The rats are divided into groups of ten and dosed by the oral route with test compound, 50 mg/kg, or vehicle control, 0.5% carboxymethylcellulose, in a volume of 5 ml/kg. Immediately after dosing, the animals are inserted into aluminum restraining tubes measuring 15/8 inches in diameter by 8 inches and placed in the cold (4±1° C.). […] At the end of the test period the animals are killed, the duodenum and esophagus ligated, and the stomach removed. The stomachs are inflated with water, opened along the lesser curvature, spread over the index finger, and the mucosa wiped off to expose the submucosa. The number of hemorrhage sites in the submucosa are counted by visual observation and recorded. Compounds are reported by determining (A) a percent inhibition which is calculated as follows: [formula] or (B) a mean ulcer number ±S.E.M. for each drug treated group and comparing it to that calculated for the control group. The test results for a compound of the invention and for the known (H^+ +K^+)ATPhase inhibitors omeprazole and timoprazole, expressed as ED50 's, are as follows: […]

Experiment [3] relates to spontaneous gastric secretions. The experiment in a line: Pyloric-ligated rat assay (inhibition of gastric acid output). Particulars: male rats, intraduodenal, 4 hours after pylorus ligation. The format is in vivo. As to the method: The procedures for these tests and the results for some of the compounds of the invention are presented at the end of the following examples, which will serve to illustrate the present invention. […] Male Charles River SC/CD rats weighing 190-260 gm are fasted for 24 hours with access to tap water ad libitum until the test. Groups of 10 rats each are assigned to either control or drug treatment. Under […] anesthesia, a midline laparotomy is performed and a ligature is tightly secured around the pylorus. Either control vehicle (0.25% aqueous methylcellulose) or drug in control vehicle is administered intraduodenally, 1 ml/kg, immediately after ligating the pylorus. The abdominal incision is closed with wound clips and the rats (2 per cage) are allowed to recover from anesthesia. After four hours the rats are sacrificed by CO2 asphyxiation. Their stomachs are removed and the accumulated gastric contents are emptied into graduated tubes. The gastric samples are centrifuged for 10 minutes. Samples contaminated with food or fecal material are discarded. The volume of gastric juice is recorded and the acid concentration of 1.0 ml sample aliquots is measured by electrometric titration to pH 7.0 using 0.1N sodium hydroxide. Titratable acid output is calculated in microequivalents and the percent inhibition of acid output is calculated as follows: [formula] The test results for a compound of the invention and for the known (H^+ +K^+)ATPase inhibitors omeprazole and timoprazole, expressed as ED50 's, are as follows: […]

A further experiment deals with gastric secretions. To be noted: cited from earlier work.
Experiment [4] deals with (H^+ +K^+)ATPase. Particulars: Fellenius, Nature 220, 159-160 (1981); cited from earlier work.
Experiment [5] relates to isolated guinea pig gastric mucosa. Particulars: dibutyryl cyclic AMP stimulation after pretreatment with theophylline; cited from earlier work.

T1 sequence (P47747 whole entry): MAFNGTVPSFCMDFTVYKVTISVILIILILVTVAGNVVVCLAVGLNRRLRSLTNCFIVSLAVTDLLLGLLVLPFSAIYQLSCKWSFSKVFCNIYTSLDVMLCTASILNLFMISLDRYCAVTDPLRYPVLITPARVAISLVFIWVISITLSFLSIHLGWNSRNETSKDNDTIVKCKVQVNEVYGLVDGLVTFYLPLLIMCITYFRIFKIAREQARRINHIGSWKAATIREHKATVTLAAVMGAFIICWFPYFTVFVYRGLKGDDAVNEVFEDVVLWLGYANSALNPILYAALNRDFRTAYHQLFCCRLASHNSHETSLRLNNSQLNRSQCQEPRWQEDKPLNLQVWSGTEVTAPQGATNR

As to `O=S1(=O)N=C(N(CCCOc2cccc(CN3CCCCC3)c2)Cc2ccccc2)c2cscc21` [Example 1, N-(Phenylmethyl)-N-[3-[3-(1-piperidinylmethyl)phenoxy]propyl]thieno[3,4-d]isothiazol-3-amine 1,1-dioxide, ethanedioate (1:1)], on H2-receptor, the “H2-receptor antagonist activity (guinea pig right atrium)” value is “inactive”. In addition, at (H^+ +K^+)ATPase [1], the IC50 (as a rule, the concentration that inhibits the measured activity by half) amounted to 400 nM. For the same compound, the ED50 in experiment [2] came to 6 mg/kg; in experiment [3], 8 mg/kg.
In the case of `O=S1(=O)N=C(N(CCCOc2cccc(CN3CCCCC3)c2)Cc2ccccc2)c2ccccc21` [Example 2, N-(Phenylmethyl)-N-[3-[3-(1-piperidinylmethyl)phenoxy]propyl]-1,2-benzoisothiazol-3-amine 1,1-dioxide, ethanedioate], the IC50 at (H^+ +K^+)ATPase [1] is 100 nM.
The same measure, in the same setting: as for `O=S1(=O)N=C(N(CCCOc2cccc(CN3CCCCC3)c2)Cc2ccc3c(c2)OCO3)c2cscc21` [Example 3, N-(1,3-benzodioxol-5-ylmethyl)-N-[3-[3-(1-piperidinylmethyl)phenoxy]propyl]thieno[3,4-d]isothiazol-3-amine 1,1-dioxide, ethanedioate (1:1)], the figure is 5000 nM; as for `Nc1c(N(CCCOc2cccc(CN3CCCCC3)c2)Cc2ccc3c(c2)OCO3)c(=O)c1=O` [Example 4], 10000 nM.
Turning to `CN/C(=N/CCSCc1nc[nH]c1C)NC#N` [cimetidine], in the experiment on gastric secretions, the “inhibition of gastric secretions” value was “inhibit only those gastric secretions which were agonized by histamine”. In the experiment on (H^+ +K^+)ATPase [4], the “inhibition of proton transport by inhibition of (H^+ +K^+)ATPase” value is on record as “devoid of this activity”.
Consider `COc1ccc2[nH]c([S+]([O-])Cc3ncc(C)c(OC)c3C)nc2c1` (centres unmarked) [omeprazole], for which, on (H^+ +K^+)ATPase [1], the IC50 was determined as 10 nM. The ED50 in experiment [2] worked out at 12 mg/kg; in experiment [3], 6 mg/kg. Further, the “inhibition of stimulated secretion in isolated guinea pig gastric mucosa” value in experiment [5] was “such stimulated secretion can be inhibited by omeprazole”. Moreover, the “inhibition of proton transport by inhibition of (H^+ +K^+)ATPase” value with (H^+ +K^+)ATPase [4] is listed as “only omeprazole inhibited proton transport by the inhibition of (H^+ +K^+)ATPase”.
`[O-][S+](Cc1ccccn1)c1nc2ccccc2[nH]1` (centres unmarked) [timoprazole]: on (H^+ +K^+)ATPase [1], the IC50 amounted to 1000 nM. Moreover, the ED50 in experiment [2] turned out to be 8 mg/kg; in experiment [3], 4 mg/kg.
